This note sets out measurements from patent US20050000824A1, “Phosphorus-borates with low melting points” (priority 2001, published 2005).

What all share (type): physicochemical
Series [1] can be described thus: Determination of solubility (qualitative, mixing ionic liquid with solvent). As to the method:
Solubility was determined only qualitatively by mixing approximately 0.5 ml of the ionic liquid with the same amount of organic solvent and shaking. All samples were checked a second time after several hours to ensure, that no slow phase separation had occured.

Series [2] is described as follows: Determination of viscosity (Brookfield Cone and Plate Viscometer). As to the method:
Viscosity was measured using an LVDV-II Brookfield Cone and Plate Viscometer (1% accuracy, 0.2 repeatability). The sample cup of the viscometer was fitted with luer and purge fittings, so that a positive current of dry dinitrogen was maintained at all times during the measurements, thus avoiding absorption of atmospheric moisture. The sample cup was jacketed with a circulating water bath that was controlled by a circulator bath Grant LTD 6G (+0.1° C. accuracy).

Series [3] is described as follows: Thermal decomposition observed with melting point determination. As to conditions: thermal stability.

In the case of `CCCCCCCCCCCCCC[P+](CCCCCC)(CCCCCC)CCCCCC.c1ccc2c(c1)O[B-]1(O2)Oc2ccccc2O1` [[R4P] [BBB], [(C6)3P(C14)][BBB]], the Solubility result in series [1] (solvent acetonitrile) is on record as “Y*”; in series [1] (solvent hexane) it was “N**”; in series [1] (solvent iso-propyl alcohol) it was “Y*”. The Viscosity in series [2] (15 ° C.) is 6184 cP; in series [2] (20 ° C.), 3735 cP; in series [2] (25 ° C.), 2439 cP; in series [2] (30 ° C.), 1593 cP; in series [2] (35 ° C.) it was 1087 cP; in series [2] (40 ° C.), 739.8 cP. Besides, the Viscosity is on record as 538.1 cP in series [2] (45 ° C.); 386.7 cP in series [2] (50 ° C.); 288.3 cP in series [2] (55 ° C.); 217.2 cP in series [2] (60 ° C.); 168.2 cP in series [2] (65 ° C.); 126.3 cP in series [2] (70 ° C.). Also, the Viscosity in series [2] (75 ° C.) came out at 100.2 cP; in series [2] (80 ° C.), 81.0 cP; in series [2] (85 ° C.), 65.2 cP; in series [2] (90 ° C.), 50.2 cP; in series [2] (95 ° C.) it was 40.91 cP. The “decomposition (temperature)” value in series [3] is “above 200 °C”.
With `CCCCCCCCCCCCCC[P+](CCCCCC)(CCCCCC)CCCCCC.O=C1O[B-]2(OC(=O)c3ccccc3O2)Oc2ccccc21` [[R4P] [BSB], [(C6)3P(C14)][BSB]], the Solubility entry is on record as “Y*” in series [1] (solvent acetonitrile) and “N**” in series [1] (solvent hexane). The Viscosity was 7334 cP in series [2] (5 ° C.); 4241 cP in series [2] (10 ° C.); 2663 cP in series [2] (15 ° C.); 1730 cP in series [2] (20 ° C.); 1164 cP in series [2] (25 ° C.); 801.4 cP in series [2] (30 ° C.). The Viscosity in series [2] (35 ° C.) was determined as 566.3 cP; in series [2] (40 ° C.), 407.0 cP; in series [2] (45 ° C.), 300.4 cP; in series [2] (50 ° C.) it was 229.6 cP; in series [2] (55 ° C.), 171.4 cP; in series [2] (60 ° C.) it was 132.6 cP. Further, the Viscosity in series [2] (65 ° C.) amounted to 106.3 cP; in series [2] (70 ° C.), 85.1 cP; in series [2] (75 ° C.), 68.4 cP; in series [2] (80 ° C.) it was 56.4 cP; in series [2] (85 ° C.), 47.2 cP; in series [2] (90 ° C.), 39.9 cP. In addition, in series [2] (95 ° C.), the Viscosity is given as 34.1 cP.
`CCCCCCCCCCCCCC[P+](CCCCCC)(CCCCCC)CCCCCC.c1ccc2c(c1)O[B-]1(Oc3ccccc3-2)Oc2ccccc2-c2ccccc2O1` [[R4P] [BBPB], [(C6)3P(C14)][BBPB]]: the Solubility entry in series [1] (solvent acetonitrile) and in series [1] (solvent iso-propyl alcohol) was “Y*” in each case. Moreover, the Viscosity in series [2] (5 ° C.) is given as 95020 cP; in series [2] (10 ° C.), 59233 cP; in series [2] (15 ° C.) it was 33737 cP; in series [2] (20 ° C.), 20660 cP; in series [2] (25 ° C.), 12813 cP; in series [2] (30 ° C.) it was 8245 cP. The Viscosity in series [2] (35 ° C.) was determined as 5453 cP; in series [2] (40 ° C.) it was 3675 cP; in series [2] (45 ° C.) it was 2703 cP; in series [2] (50 ° C.) it was 1953 cP; in series [2] (55 ° C.) it was 1393 cP; in series [2] (60 ° C.), 1022 cP. The Viscosity is listed as 759.0 cP in series [2] (65 ° C.); 550.7 cP in series [2] (70 ° C.); 333.9 cP in series [2] (75 ° C.); 209.2 cP in series [2] (80 ° C.); 173.0 cP in series [2] (85 ° C.); 177.8 cP in series [2] (90 ° C.).
